In the METLIN SMRT retention time set (Domingo-Almenara et al. 2019):

assay: gradient 5% acetonitrile 3 min, to 50% in 2 min, to 85% in 15 min, held 3 min, 100 µL/min; conditions: column: Zorbax Extend-C18 2.1 x 50 mm; eluents: water / acetonitrile, 0.1% formic acid
In short: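 Mixtures of ~100 pure standards were chromatographed on a Zorbax Extend-C18 column (2.1 × 50 mm, 1.8 μm) at 100 μL/min using water and acetonitrile, each with 0.1% formic acid. Detection used a quadrupole time-of-flight mass spectrometer in positive and negative ionization mode, and data collection spanned 3 months. Retention time was obtained from adduct peaks picked computationally and each checked manually.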

Going from `O=C(NCc1cccnc1)C1CCCN(S(=O)(=O)c2cc(-c3noc(C4CCC4)n3)cs2)C1` (stereo not drawn) to `Cc1ccc(-c2noc(C3CCCN3C(=O)NC3CCCCC3)n2)cc1` (stereo not drawn), the RP-LC retention time rises from 825 s to 1020 s.

Going from `CCCCOc1ccc(C(=O)N2CCOC(c3ccccc3)C2)cc1` (stereo not drawn) to `CCNC(=O)N1CCC(c2noc(-c3ccccc3)n2)C1` (stereo not drawn), the RP-LC retention time falls from 1060 s to 724 s.

Compared with `CCn1cc(-c2nc(C(=O)Nc3ccccc3OC)cs2)c2cccnc21`, `CCn1cc(CCNC(=O)Nc2ccc(C)cc2C)c2cccnc21` is lower in RP-LC retention time: 1180 s for the first, 705 s for the second.

Compared with `O=C(CCn1c(N2CCCC2)nc2ccsc2c1=O)N1CCN(c2ccccn2)CC1`, `O=C(Nc1cccc(F)c1)c1nnc(CSCC(=O)N2CCN(c3ccccn3)CC2)s1` is higher in RP-LC retention time: 609 s for the first, 654 s for the second.

Compared with `Cn1ncc2c3ccccc3n(CCCC(=O)NCCN3CCCCC3)c2c1=O`, `O=C(NCCCN1CCOCC1)c1c2c(nc3ccccc13)C(=O)N(C1CCCCC1)C2` is lower in RP-LC retention time: 618 s for the first, 598 s for the second.

Compared with `O=C(Cn1nc(Cc2cccnc2)c2ccccc2c1=O)NCCC1=CCCCC1`, `Cc1nnc(N2CCCC(C(=O)NCCC3=CCCCC3)C2)c2nn(-c3ccc(Cl)cc3)c(C)c12` (stereo not drawn) is higher in RP-LC retention time: 663 s for the first, 861 s for the second.

First: CCOC(=O)c1noc2nc(C)nc(Nc3ccc(C)c(F)c3)c12
Second: COc1ccc(OC)c(CNC(=O)COc2nc(C)nc3oc(C)c(C)c23)c1
The RP-LC retention time of the first is higher: 1230 s for the first, 866 s for the second.

First: CCn1c(C(=O)NC2CCCCCC2)cc2sc(Cl)cc21
Second: CCn1cc(C)c(C(=O)O)c1CC(=O)NC1CCCCCC1
The RP-LC retention time of the first is higher: 1290 s for the first, 814 s for the second.

Going from `CCCCNC(=O)c1ccc2c(c1)NC(=O)C1CCCCN21` (stereo not drawn) to `CC(C)OCCCNC(=O)c1ccc2c(c1)nc1n2CCCCC1`, the RP-LC retention time falls from 759 s to 606 s.

Compared with `Cc1ccc(Cn2c(C)c3cnn(CC(=O)NCC4CCCO4)c(=O)c3c2C)cc1` (stereo not drawn), `Cc1cc(C)n(-c2ccc(=O)n(CC(=O)NCc3ccc4c(c3)OCO4)n2)n1` is lower in RP-LC retention time: 780 s for the first, 668 s for the second.

Compared with `O=C(NC1CC1)c1cc(-c2cccs2)n(C2CCS(=O)(=O)C2)n1` (stereo not drawn), `O=C(NC1CC1)c1c2c(nc3ccccc13)CCC2` is lower in RP-LC retention time: 710 s for the first, 566 s for the second.

Going from `CC(C)CC(=O)Nc1ccc(-n2cnc(C(=O)N3CCSCC3)c2)nc1` to `CC(C)NC(=O)C1CCCN(c2nc3ncn(CC(=O)Nc4ccccc4)c(=O)c3s2)C1` (stereo not drawn), the RP-LC retention time falls from 709 s to 686 s.

First: Cc1ccc(C(=O)Nc2ccc3c(c2)CCC(=O)N3C)s1
Second: Cc1c(C(=O)C(=O)Nc2cccc(F)c2)c2ccccc2n1C
The RP-LC retention time of the first is lower: 712 s for the first, 960 s for the second.

Compared with `CN1c2cc(C(=O)NCc3ccc(F)cc3Cl)ccc2C(=O)N2CCCCC21` (stereo not drawn), `COc1ccc(N2C=C(C(=O)N3CCCC3)S(=O)(=O)c3ccc(F)cc32)cc1OC` is lower in RP-LC retention time: 833 s for the first, 758 s for the second.

Going from `Cc1cc(-c2nnc(-c3ccco3)o2)c(C)n1CC(=O)Nc1ccc(F)c(F)c1` to `Cc1ccc2ncn3c(=O)n(CC(=O)Nc4ccc5c(c4)OCO5)nc3c2c1`, the RP-LC retention time falls from 909 s to 673 s.

Compared with `COc1cc(-c2nc3sc4c(c3c(=O)o2)CCC4)cc(OC)c1OC`, `COc1ccc(-c2noc(C3CCCN3C(=O)Nc3cc(C)ccc3OC)n2)cc1` (stereo not drawn) is lower in RP-LC retention time: 1090 s for the first, 859 s for the second.

Compared with `COc1ccc(NC(=O)C2CCN(C(=O)c3nnc(C(=O)Nc4ccc(F)cc4)s3)CC2)cc1`, `COc1ccc(OC)c(NC(=O)C(C)C2CCN(C(=O)Nc3ccc(C)cc3)CC2)c1` (stereo not drawn) is higher in RP-LC retention time: 903 s for the first, 908 s for the second.

Going from `CC1CCN(c2ncc(NC(=O)c3ccc(Br)cc3)cc2C(=O)O)CC1` to `COc1ccc(-c2cc(N3CCC(NC(=O)c4ccc(Cl)cc4)C3)n[nH]2)cc1` (stereo not drawn), the RP-LC retention time falls from 759 s to 739 s.

Compared with `CC(C)NC(=O)c1cc(N(C)C)nc2ccccc12`, `CC(C)n1nnc2cc(C(=O)N(C)CC(=O)Nc3cccc(Br)c3)ccc21` is higher in RP-LC retention time: 587 s for the first, 805 s for the second.

Going from `O=C(N[C@H]1C[C@@H]2C[C@H]1CN2C(=O)NCCc1ccccc1)c1ccccc1` to `CC1=NS(=O)(=O)N(Cc2ccccc2)C=C1C(=O)OCc1nc(-c2ccccc2)no1`, the RP-LC retention time rises from 734 s to 1120 s.

First: COCCn1nc2n(c1=O)CCC1(CC2)CCN(C(=O)C2CC=CC2)CC1
Second: O=c1n(CC2CC2)nc2n1CCC(NS(=O)(=O)c1cccc(F)c1)CC2 (stereo not drawn)
The RP-LC retention time of the first is lower: 658 s for the first, 717 s for the second.

Going from `O=C(NC1CCCC1)C1CCN(C(=O)C2Sc3ccccc3NC2=O)CC1` (stereo not drawn) to `O=C(CN1C(=O)C(C(=O)N2CCCC2)Sc2ccccc21)N1CCN(c2cccc(Cl)c2)CC1` (stereo not drawn), the RP-LC retention time rises from 697 s to 923 s.

Compared with `Cc1cnc(C2CNC2)n1Cc1ccccc1`, `Cc1ncc2c(n1)C[C@@H]1CC[C@H]2N1C(=O)Cc1ccccc1` is higher in RP-LC retention time: 589 s for the first, 648 s for the second.

Compared with `CCCNC(=O)C1CCCN(c2cnc3nc(CC)c(CC)nc3c2)C1` (stereo not drawn), `COc1ccc(C(=O)N2CCCC2c2nc(-c3cccc(C)c3)no2)cn1` (stereo not drawn) is higher in RP-LC retention time: 755 s for the first, 947 s for the second.

Compared with `CCCC[C@@H](C)/C=C(C)/C=C(\C)C(=O)NC1=C[C@@](O)(/C=C/C=C/C=C/C(=O)NC2=C(O)CCC2=O)[C@@H]2OC2C1=O` (stereo partly drawn), `COCCNC(=O)CC1CCN(C(=O)c2[nH]c(C)c(C(=O)OC)c2C)CC1` is lower in RP-LC retention time: 1250 s for the first, 614 s for the second.

Going from `CCN1C(=O)COc2ccc(-c3csc(NC(=O)c4ccccc4Cl)n3)cc21` to `COc1ccc(Cl)c2c(=O)c3c([nH]c12)CCN(CC(=O)Nc1ccccc1Cl)C3`, the RP-LC retention time falls from 968 s to 638 s.

Compared with `CCc1ccc2c(c1)-c1ccccc1S(=O)(=O)N2CC(=O)NCCCn1ccnc1`, `CCOc1ccc(N(C)S(=O)(=O)c2ccsc2C(=O)NC(C)CCc2ccccc2)cc1` (stereo not drawn) is higher in RP-LC retention time: 675 s for the first, 1260 s for the second.

Compared with `COc1ccccc1/C=C/C(=O)N1CCC(c2cc(N)on2)CC1`, `Cn1nc(C2CCN(C(=O)c3ccc4ccccc4n3)CC2)c2c1CCOC2` is lower in RP-LC retention time: 720 s for the first, 669 s for the second.

First: COc1ccc(NC(=O)C2CCN(S(=O)(=O)c3ccc4[nH]c(=O)ccc4c3)CC2)cc1Cl
Second: Cc1ccc(S(=O)(=O)N2CCC(n3cnc4c(C)cccc4c3=O)CC2)cc1F
The RP-LC retention time of the first is lower: 752 s for the first, 1030 s for the second.

First: Cc1nn2c(CNS(=O)(=O)c3ccc(F)c(F)c3)c(-c3ccccc3)nc2s1
Second: O=C1C(=O)N(C2CCN(S(=O)(=O)c3ccc(F)c(F)c3)CC2)CCN1Cc1ccccc1
The RP-LC retention time of the first is higher: 906 s for the first, 827 s for the second.

Compared with `Oc1ccc(Br)cc1CN1CCN(c2cc(-c3ccncc3)[nH]n2)CC1`, `Cc1cccc(N2CCN(Cc3nc4nc(C)cc(N5CCCC5)n4n3)CC2)c1` is higher in RP-LC retention time: 526 s for the first, 632 s for the second.

Going from `COCc1nc(C2CCN(C(=O)Nc3ccc4c(c3)OCCO4)C2)no1` (stereo not drawn) to `Cc1cc(C2CCCN2C(=O)Cc2ccc(F)cc2)no1` (stereo not drawn), the RP-LC retention time rises from 662 s to 775 s.

Compared with `CCC(=O)N1CCN(C(=O)c2ccccc2)CC1`, `O=C(c1ccc(S(=O)(=O)c2ccccc2)nc1)N1CCN(C2CCCCC2)CC1` is lower in RP-LC retention time: 693 s for the first, 566 s for the second.

First: Fc1cccc(F)c1C1SCc2nc3ccccc3n21 (stereo not drawn)
Second: O=C(CC1CCCCN1S(=O)(=O)c1ccccc1)Nc1cc(F)ccc1F (stereo not drawn)
The RP-LC retention time of the first is lower: 797 s for the first, 887 s for the second.

Going from `CCCN(CC(=O)N(Cc1ccco1)CC1CCCO1)C(=O)Cc1ccc(F)cc1` (stereo not drawn) to `CSc1cccc(NC(=O)N2CCC(C)(C(=O)NCc3ccc(F)cc3)CC2)c1`, the RP-LC retention time rises from 872 s to 884 s.

Compared with `CCCCN1CCc2nc(Nc3cc(OC)ccc3OC)ncc2C1`, `COc1ccc(OC)c(-c2[nH]ncc2CN2CC(F)(F)C[C@H]2CN2CCCCCC2)c1` is lower in RP-LC retention time: 655 s for the first, 578 s for the second.

Compared with `O=C(CN1CCN(Cc2ccc(F)cc2)C1=O)NC1CCN(Cc2ccccc2)CC1`, `CCc1ccc(-c2cc3c(=O)n(Cc4noc(CN5CCC(C)CC5)n4)ccn3n2)cc1` is higher in RP-LC retention time: 618 s for the first, 757 s for the second.

Going from `CCS(=O)(=O)N1CCC[C@H](n2c(=O)n(C)c3cccnc32)C1` to `CC(=O)N1CCCSc2ccc(S(=O)(=O)N3CCN(c4cccc(C)c4)C(C)C3)cc21` (stereo not drawn), the RP-LC retention time rises from 698 s to 982 s.

First: Cc1cccn2cc(-c3cccc(NS(=O)(=O)c4ccc(C(C)(C)C)cc4)c3)nc12
Second: Cc1ccc(S(=O)(=O)Nc2cc(-c3cn4ccc(C)cc4n3)ccc2C)cc1
The RP-LC retention time of the first is higher: 792 s for the first, 696 s for the second.

First: COc1cc(Cl)c(C)cc1N1C=C(C#N)S(=O)(=O)c2ccc(F)cc21
Second: COc1ccc(S(=O)(=O)Nc2cc(N3CCCS3(=O)=O)ccc2OC)cc1F
The RP-LC retention time of the first is higher: 972 s for the first, 721 s for the second.

First: Cc1ccc(-c2cc3c4nnc(SCC(=O)Nc5cccc(C)c5C)n4ccn3n2)cc1C
Second: Cc1ccn2c(Nc3ccccc3C)c(-c3ccc(N(C)C)cc3)nc2c1
The RP-LC retention time of the first is higher: 1000 s for the first, 809 s for the second.

Going from `Cc1cc(C)cc(NS(=O)(=O)c2cc3c(s2)CCN(C(=O)C2CCC2)C3)c1` to `COc1ccc(CCNC(=O)c2cc(C3CC3)[nH]n2)cc1OC`, the RP-LC retention time falls from 962 s to 690 s.

First: [O-][n+]1ccc(CC(O)(C(F)(F)F)C(F)(F)F)cc1
Second: CC[C@H](C)NC(=O)Cc1nnc(-c2ccc(OC)cc2)o1
The RP-LC retention time of the first is lower: 674 s for the first, 707 s for the second.

First: CNC(=O)[C@H]1O[C@@H](n2cnc3c(NCc4cccc(I)c4)nc(Cl)nc32)C(O)[C@H]1O (stereo partly drawn)
Second: Cc1noc(C)c1CCNC(=O)c1ccc2nc(Cc3ccccc3)oc2c1
The RP-LC retention time of the first is lower: 768 s for the first, 830 s for the second.
